Values quoted from earlier work, collected in patent EP2708126A1, “Insecticidal aerosol” (priority 2012, dated 2014).

Settings: rats, through ingestion

## CNC(=O)Oc1cccc2c1OC(C)(C)O2 [Bendiocarb, 2,2-dimethyl-1,3-benzodioxol-4-yl-N-methylcarbamate]
  LD50: 55 mg/kg

## CC1(C)C(C=C(Cl)Cl)C1C(=O)OCc1cccc(Oc2ccccc2)c1 (stereo not drawn) [Permethrin, 3-phenoxybenzyl-3-(2,2-dichlorovinyl)-2,2-dimethylcyclopropane-carboxylate]
  LD50: 383 mg/kg

## CC1(C)C(C=C(Cl)Cl)C1C(=O)OC(C#N)c1cccc(Oc2ccccc2)c1 (racemic) [Alpha cypermethrin]
  LD50: 79 mg/kg
